The numbers were not newly measured in patent US10786531B2, “Mineral salt-sulfonic acid compositions and methods of use” (BMG PHARMA SPA, priority 2009, dated 2020), which cites them from elsewhere.

For data set [1] the following is noted: solutions of 0.2-1%.

Where two headings read alike, the source gives them in different places.

Consider `[Cl-].[Cl-].[Zn+2]` [zinc chloride], for which the dermal irritancy entry in the data set with dermal abrasion (1% aqueous) is reported as “severe irritant”.
For the compound `[O]=[Zn]` [zinc oxide], the dermal irritancy entry with dermal abrasion (20% suspension) is listed as “not overtly irritant”.
In the case of `CC(=O)[O-].CC(=O)[O-].[Zn+2]` [zinc acetate], the dermal irritancy result in the data set with dermal abrasion (20% aqueous) is “slightly less irritant”.
zinc pyrithione: the dermal irritancy entry with dermal abrasion (20% suspension) was “not overtly irritant”.
With `O=S(=O)([O-])[O-].[Zn+2]` [zinc sulfate], the dermal irritancy entry in the data set on dermal abrasion (1% aqueous) is reported as “not overtly irritant”. Moreover, in data set [1], the “irritation when applied circumorally” value was “severe irritation”.
